These are literature values, as cited in patent US20260301880A1, “NOSE-TO-BRAIN PHYSIOLOGICALLY BASED PHARMACOKINETIC MODEL” (APTARGROUP INC., priority 2023, published 2026).

Each structure is given as a SMILES string.

The conditions of series [1]: humans.
The conditions of series [2]: octanol/water.
Experiment in series [3]: not given
The source holds these as a separate data set.

The conditions of series [4]: literature value, porcine nasal mucosa.
Experiment in series [5]: not given
The source holds these as a separate data set.

For series [6] the following is noted: healthy volunteers.
For series [7] the following is noted: clinical.

`CC(=O)Nc1ccc(O)cc1` [paracetamol]: in series [1], the “PbAb - Permeability-surface area product between brain blood and brain mass” value was 1.875 L/h.
For `CN1C[C@H](C(=O)N[C@]2(C)O[C@@]3(O)[C@@H]4CCCN4C(=O)[C@H](Cc4ccccc4)N3C2=O)C[C@@H]2c3cccc4[nH]cc(c34)C[C@H]21` [DHE, dihydroergotamine], the “fu - fraction unbound in blood plasma” value was 0.03. In addition, in series [2], the lipophilicity (LogP) is recorded as 2. For the same compound, the “pKa (acid)” value in series [3] (acid) is 9.71. In series [3] (base), the “pKa (base)” value was 8.39. Moreover, the “P - Permeability in the nasal epithelium” value in series [4] is recorded as 1.48 × 10^−7.
As for `CNS(=O)(=O)Cc1ccc2[nH]cc(CCN(C)C)c2c1` [sumatriptan], the “fu - fraction unbound in blood plasma” value was 0.63. Further, in series [5], the “R - Blood/plasma ratio” value was 1. Also, the oral bioavailability entry in series [6] is “low”. For the same compound, the reported nasal bioavailability in series [7] is 16%.
